Assay results: patent US12077503B2, “Substituted cyclic amides and their use as herbicides” (FMC CORPORATION, priority 2015, dated 2024)

Assays:
Assay in all cases: Test C preemergence
Assay type in all cases: in vivo
corn (Zea mays) = conditions: for Plant response rating, Corn: scale 0 to 100, 0 no effect, 100 complete control
Outline: (§1)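 Preemergence application to seeds in loam/sand soil, or foliar (postemergence) application to plants 2–18 cm tall in peat moss/vermiculite medium; surfactant-containing non-phytotoxic solvent vehicle; greenhouse. Visual injury vs controls at 13–15 d; 0 = no effect, 100 = complete control.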

[1] = test system: blackgrass (Alopecurus myosuroides); conditions: for Plant response rating, Blackgrass: scale 0 to 100, 0 no effect, 100 complete control
Outline: as §1

[2] = test system: oilseed rape (Brassica napus); conditions: for Plant response rating, Oilseed Rape: scale 0 to 100, 0 no effect, 100 complete control
Outline: as §1

[3] = test system: barnyardgrass (Echinochloa crus-galli); conditions: for Plant response rating, Barnyardgrass: scale 0 to 100, 0 no effect, 100 complete control
Outline: as §1

[4] = test system: pigweed (Amaranthus retroflexus); conditions: for Plant response rating, Pigweed: scale 0 to 100, 0 no effect, 100 complete control
Outline: as §1

[5] = test system: ragweed (common ragweed, Ambrosia elatior); conditions: for Plant response rating, Ragweed: scale 0 to 100, 0 no effect, 100 complete control
Outline: as §1

[6] = test system: velvetleaf (Abutilon theophrasti); conditions: for Plant response rating, Velvetleaf: scale 0 to 100, 0 no effect, 100 complete control
Outline: as §1

[7] = test system: Galium (catchweed bedstraw, Galium aparine); conditions: for Plant response rating, Galium: scale 0 to 100, 0 no effect, 100 complete control
Outline: as §1

[8] = test system: nutsedge, yellow (yellow nutsedge, Cyperus esculentus); conditions: for Plant response rating, Nutsedge, Yellow: scale 0 to 100, 0 no effect, 100 complete control
Outline: as §1

[9] = test system: wheat (winter wheat, Triticum aestivum); conditions: for Plant response rating, Wheat: scale 0 to 100, 0 no effect, 100 complete control
Outline: as §1

[10] = test system: morningglory (Ipomoea coccinea); conditions: for Plant response rating, Morningglory: scale 0 to 100, 0 no effect, 100 complete control
Outline: as §1

soybean (Glycine max) = conditions: for Plant response rating, Soybean: scale 0 to 100, 0 no effect, 100 complete control
Outline: as §1

[11] = test system: ryegrass, Italian (Italian ryegrass, Lolium multiflorum); conditions: for Plant response rating, Ryegrass, Italian: scale 0 to 100, 0 no effect, 100 complete control
Outline: as §1

[12] = test system: lambsquarters (Chenopodium album); conditions: for Plant response rating, Lambsquarters: scale 0 to 100, 0 no effect, 100 complete control
Outline: as §1

[13] = test system: foxtail, giant (giant foxtail, Setaria faberii); conditions: for Plant response rating, Foxtail, Giant: scale 0 to 100, 0 no effect, 100 complete control
Outline: as §1

[14] = test system: waterhemp (common waterhemp, Amaranthus rudis); conditions: for Plant response rating, Waterhemp: scale 0 to 100, 0 no effect, 100 complete control
Outline: as §1

[15] = test system: crabgrass, large (large crabgrass, Digitaria sanguinalis); conditions: for Plant response rating, Crabgrass, Large: scale 0 to 100, 0 no effect, 100 complete control
Outline: as §1

[16] = 31 g ai/ha, 0 is no effect, 100 is complete control

For `CN1CC(c2cccc(C(F)(F)F)c2)C(C(=O)Nc2ccccc2S(C)(=O)=O)C1=O` (centres unmarked) [Compound 637], the “Plant response rating (scale of 0 to 100), Corn” value (corn (Zea mays); [16]) was 35, the “Plant response rating, Corn” value (corn (Zea mays); 62 g ai/ha) was 55 and the “Plant response rating, Corn” value (corn (Zea mays); 125 g ai/ha) was 75. The “Plant response rating, Corn” value (corn (Zea mays); 250 g ai/ha) was 85, the “Plant response rating (scale of 0 to 100), Blackgrass” value [1, 16] was 70 and the “Plant response rating, Blackgrass” value ([1]; 62 g ai/ha) was 90. For the same compound, the “Plant response rating, Blackgrass” value ([1]; 125 g ai/ha) was 90, the “Plant response rating, Blackgrass” value ([1]; 250 g ai/ha) was 90 and the “Plant response rating (scale of 0 to 100), Oilseed Rape” value [2, 16] was 10. The “Plant response rating, Oilseed Rape” value ([2]; 62 g ai/ha) was 80, the “Plant response rating, Oilseed Rape” value ([2]; 125 g ai/ha) was 85 and the “Plant response rating, Oilseed Rape” value ([2]; 250 g ai/ha) was 85. For the same compound, the “Plant response rating (scale of 0 to 100), Barnyardgrass” value [3, 16] was 90, the “Plant response rating, Barnyardgrass” value ([3]; 62 g ai/ha) was 90 and the “Plant response rating, Barnyardgrass” value ([3]; 125 g ai/ha) was 95. For the same compound, the “Plant response rating, Barnyardgrass” value ([3]; 250 g ai/ha) was 95, the “Plant response rating (scale of 0 to 100), Pigweed” value [4, 16] was 70 and the “Plant response rating, Pigweed” value ([4]; 62 g ai/ha) was 80. The “Plant response rating, Pigweed” value ([4]; 125 g ai/ha) was 85, the “Plant response rating, Pigweed” value ([4]; 250 g ai/ha) was 85 and the “Plant response rating (scale of 0 to 100), Ragweed” value [5, 16] was 55. The “Plant response rating, Ragweed” value ([5]; 62 g ai/ha) was 60, the “Plant response rating, Ragweed” value ([5]; 125 g ai/ha) was 75 and the “Plant response rating, Ragweed” value ([5]; 250 g ai/ha) was 75. For the same compound, the “Plant response rating (scale of 0 to 100), Velvetleaf” value [6, 16] was 0, the “Plant response rating, Velvetleaf” value ([6]; 62 g ai/ha) was 10 and the “Plant response rating, Velvetleaf” value ([6]; 125 g ai/ha) was 45. The “Plant response rating, Velvetleaf” value ([6]; 250 g ai/ha) was 65, the “Plant response rating (scale of 0 to 100), Galium” value [7, 16] was 0 and the “Plant response rating, Galium” value ([7]; 62 g ai/ha) was 80. For the same compound, the “Plant response rating, Galium” value ([7]; 125 g ai/ha) was 80, the “Plant response rating, Galium” value ([7]; 250 g ai/ha) was 85 and the “Plant response rating (scale of 0 to 100), Nutsedge, Yellow” value [8, 16] was 0. For the same compound, the “Plant response rating, Nutsedge, Yellow” value ([8]; 62 g ai/ha) was 85, the “Plant response rating, Nutsedge, Yellow” value ([8]; 125 g ai/ha) was 0 and the “Plant response rating, Nutsedge, Yellow” value ([8]; 250 g ai/ha) was 65. For the same compound, the “Plant response rating (scale of 0 to 100), Wheat” value [9, 16] was 60, the “Plant response rating, Wheat” value ([9]; 62 g ai/ha) was 50 and the “Plant response rating, Wheat” value ([9]; 125 g ai/ha) was 90. The “Plant response rating, Wheat” value ([9]; 250 g ai/ha) was 90, the “Plant response rating (scale of 0 to 100), Morningglory” value [10, 16] was 10 and the “Plant response rating, Morningglory” value ([10]; 62 g ai/ha) was 35. For the same compound, the “Plant response rating, Morningglory” value ([10]; 125 g ai/ha) was 40, the “Plant response rating, Morningglory” value ([10]; 250 g ai/ha) was 45 and the “Plant response rating (scale of 0 to 100), Soybean” value (soybean (Glycine max); [16]) was 0. For the same compound, the “Plant response rating, Soybean” value (soybean (Glycine max); 62 g ai/ha) was 0, the “Plant response rating, Soybean” value (soybean (Glycine max); 125 g ai/ha) was 0 and the “Plant response rating, Soybean” value (soybean (Glycine max); 250 g ai/ha) was 5. The “Plant response rating (scale of 0 to 100), Ryegrass, Italian” value [11, 16] was 55, the “Plant response rating, Ryegrass, Italian” value ([11]; 62 g ai/ha) was 30 and the “Plant response rating, Ryegrass, Italian” value ([11]; 125 g ai/ha) was 30. The “Plant response rating, Ryegrass, Italian” value ([11]; 250 g ai/ha) was 35, the “Plant response rating (scale of 0 to 100), Lambsquarters” value [12, 16] was 25 and the “Plant response rating, Lambsquarters” value ([12]; 62 g ai/ha) was 55. For the same compound, the “Plant response rating, Lambsquarters” value ([12]; 125 g ai/ha) was 55, the “Plant response rating, Lambsquarters” value ([12]; 250 g ai/ha) was 70 and the “Plant response rating (scale of 0 to 100), Foxtail, Giant” value [13, 16] was 90. The “Plant response rating, Foxtail, Giant” value ([13]; 62 g ai/ha) was 90, the “Plant response rating, Foxtail, Giant” value ([13]; 125 g ai/ha) was 95 and the “Plant response rating, Foxtail, Giant” value ([13]; 250 g ai/ha) was 95. For the same compound, the “Plant response rating (scale of 0 to 100), Waterhemp” value [14, 16] was 75, the “Plant response rating, Waterhemp” value ([14]; 62 g ai/ha) was 80 and the “Plant response rating, Waterhemp” value ([14]; 125 g ai/ha) was 85. The “Plant response rating, Waterhemp” value ([14]; 250 g ai/ha) was 90, the “Plant response rating (scale of 0 to 100), Crabgrass, Large” value [15, 16] was 95 and the “Plant response rating, Crabgrass, Large” value ([15]; 62 g ai/ha) was 100. For the same compound, the “Plant response rating, Crabgrass, Large” value ([15]; 125 g ai/ha) was 100 and the “Plant response rating, Crabgrass, Large” value ([15]; 250 g ai/ha) was 100.
